Test results as given in ChEMBL document CHEMBL1143774, “Parallel strategies for the preparation and selection of liver-targeted glucocorticoid receptor antagonists” (Bioorg Med Chem Lett, 2007).

Tests used:
Glucocorticoid receptor [1] = target: T1, Glucocorticoid receptor (Homo sapiens, UniProt P04150); experiment: Inhibition of human GR transcriptional activation by HepTAT cells; assay type: cell-based
T1 sequence (P04150 whole entry): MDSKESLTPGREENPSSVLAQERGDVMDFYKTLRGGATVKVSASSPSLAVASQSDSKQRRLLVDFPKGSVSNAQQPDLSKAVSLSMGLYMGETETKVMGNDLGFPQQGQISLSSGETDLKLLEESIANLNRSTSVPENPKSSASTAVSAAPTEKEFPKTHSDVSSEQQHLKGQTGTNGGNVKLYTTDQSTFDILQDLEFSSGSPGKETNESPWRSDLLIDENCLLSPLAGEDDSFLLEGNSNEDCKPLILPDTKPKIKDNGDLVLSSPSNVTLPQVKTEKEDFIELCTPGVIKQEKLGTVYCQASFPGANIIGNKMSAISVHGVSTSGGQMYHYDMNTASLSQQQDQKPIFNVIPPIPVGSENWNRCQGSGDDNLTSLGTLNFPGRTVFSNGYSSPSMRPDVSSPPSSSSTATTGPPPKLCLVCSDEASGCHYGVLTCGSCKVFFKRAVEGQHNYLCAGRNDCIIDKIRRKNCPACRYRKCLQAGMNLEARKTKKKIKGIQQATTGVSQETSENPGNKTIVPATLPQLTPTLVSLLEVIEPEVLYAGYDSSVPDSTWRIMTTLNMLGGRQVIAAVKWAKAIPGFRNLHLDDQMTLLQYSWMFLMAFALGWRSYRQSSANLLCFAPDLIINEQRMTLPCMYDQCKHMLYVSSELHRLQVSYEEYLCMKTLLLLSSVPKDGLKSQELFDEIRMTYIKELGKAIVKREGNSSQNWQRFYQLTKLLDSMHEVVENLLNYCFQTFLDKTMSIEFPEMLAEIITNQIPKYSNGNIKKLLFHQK

Glucocorticoid receptor [2] = target: T1, Glucocorticoid receptor; experiment: Inhibition of human GR expressed in hGRAF cells; assay type: cell-based
Glucocorticoid receptor [3] = target: T1, Glucocorticoid receptor; experiment: Displacement of radiolabeled Dexamethasone from human GR
Rattus norvegicus [4] = experiment: Inhibition of prednisilone-induced lymphopenia in Sprague-Dawley rats at 100 mg/kg, po; assay type: functional
Rattus norvegicus [5] = experiment: Inhibition of prednisilone-induced TAT level in Sprague-Dawley rats at 100 mg/kg, po; assay type: functional
Rattus norvegicus [6] = experiment: Inhibition of prednisilone-induced glycogen depostion in Sprague-Dawley rats at 100 mg/kg, po; assay type: functional
[7] = Drug level in Sprague-Dawley rat liver after 1 hr; assay type: ADME, tissue-based; conditions: read-out: Activity
[8] = Ratio of drug level in liver to plasma in Sprague-Dawley rat at 1 hr; assay type: ADME, tissue-based; conditions: liver and plasma

Structure (SMILES) | Ki (Glucocorticoid receptor [1]) | Ki (Glucocorticoid receptor [2]) | Ki (Glucocorticoid receptor [3]) | concentration at 1 h [7] | Kp at 1 h [8] | inhibition in vivo at 100 mg/kg (Rattus norvegicus [4]) | inhibition in vivo at 100 mg/kg (Rattus norvegicus [5]) | inhibition in vivo at 100 mg/kg (Rattus norvegicus [6])
CC#C[C@]1(O)CC[C@H]2[C@@H]3CCC4=CC(=O)CCC4=C3[C@@H](c3ccc(N(C)CCCCC(=O)O)cc3)C[C@@]21C | 127 nM | 15 nM | 4.8 nM | – | – | – | – | –
CC#C[C@]1(O)CC[C@H]2[C@@H]3CCC4=CC(=O)CCC4=C3[C@@H](c3ccc(N(C)CC(=O)Nc4ccc(C(=O)O)cc4)cc3)C[C@@]21C | 75 nM | 91.8 nM | 2.7 nM | – | – | – | – | –
CC#C[C@]1(O)CC[C@H]2[C@@H]3CCC4=CC(=O)CCC4=C3[C@@H](c3ccc(N(C)Cc4cccc(C(=O)O)c4)cc3)C[C@@]21C | 112 nM | 30 nM | 3 nM | – | – | – | – | –
CC#C[C@]1(O)CC[C@H]2[C@@H]3CCC4=CC(=O)CCC4=C3[C@@H](c3ccc(N(C)CC(=O)N(C)Cc4cccc(C(=O)O)c4)cc3)C[C@@]21C | – | – | – | – | – | -10% | 20% | 9%
CC#C[C@]1(O)CC[C@H]2[C@@H]3CCC4=CC(=O)CCC4=C3[C@@H](c3ccc(N(C)C)cc3)C[C@@]21C [MIFEPRISTONE] | – | – | – | – | – | 104% | 101% | 77%
CC#C[C@]1(O)CC[C@H]2[C@@H]3CCC4=CC(=O)CCC4=C3[C@@H](c3ccc(N(C)Cc4ccc(C(=O)NCc5cccc(C(=O)O)c5)cc4)cc3)C[C@@]21C | – | – | – | – | – | -10% | 3% | -12%
CC#C[C@]1(O)CC[C@H]2[C@@H]3CCC4=CC(=O)CCC4=C3[C@@H](c3ccc(N(C)Cc4ccc(C(=O)N[C@H](CCSC)C(=O)O)cc4OC)cc3)C[C@@]21C | – | – | – | – | – | -4% | -27% | 8%
CC#C[C@]1(O)CC[C@H]2[C@@H]3CCC4=CC(=O)CCC4=C3[C@@H](c3ccc(N(C)Cc4ccc(CC(=O)O)cc4)cc3)C[C@@]21C | 32 nM | 4.4 nM | 1.8 nM | – | – | 117% | 95% | 101%

More lines, main results first:

Ki (Glucocorticoid receptor [1]) | Ki (Glucocorticoid receptor [2]) | Ki (Glucocorticoid receptor [3]) | concentration at 1 h [7] | Kp at 1 h [8] | Structure (SMILES) | inhibition in vivo at 100 mg/kg (Rattus norvegicus [4]) | inhibition in vivo at 100 mg/kg (Rattus norvegicus [5]) | inhibition in vivo at 100 mg/kg (Rattus norvegicus [6])
57 nM | 39 nM | 1.1 nM | – | – | CC#C[C@]1(O)CC[C@H]2[C@@H]3CCC4=CC(=O)CCC4=C3[C@@H](c3ccc(N(C)CC(=O)N(Cc4ccccc4)Cc4ccc(C(=O)O)cc4)cc3)C[C@@]21C | – | – | –
33 nM | 33 nM | 0.9 nM | – | – | CC#C[C@]1(O)CC[C@H]2[C@@H]3CCC4=CC(=O)CCC4=C3[C@@H](c3ccc(N(C)CC(=O)N(Cc4ccc(C(=O)O)cc4)c4ccc(Br)cc4)cc3)C[C@@]21C | – | – | –
– | – | – | 37000 ng/g | 17 | CC#C[C@]1(O)CC[C@H]2[C@@H]3CCC4=CC(=O)CCC4=C3[C@@H](c3ccc(N(C)Cc4ccc(C(C)C(=O)O)cc4)cc3)C[C@@]21C (stereo partly drawn) | – | – | –
31 nM | 765 nM | 35 nM | – | – | CC#C[C@]1(O)CC[C@H]2[C@@H]3CCC4=CC(=O)CCC4=C3[C@@H](c3ccc(N(C)CC(=O)Nc4nc(CC(=O)O)cs4)cc3)C[C@@]21C | – | – | –
36 nM | 90 nM | 0.6 nM | – | – | CC#C[C@]1(O)CC[C@H]2[C@@H]3CCC4=CC(=O)CCC4=C3[C@@H](c3ccc(N(C)Cc4ccc(C(=O)NCC(=O)O)cc4)cc3)C[C@@]21C | 40% | 48% | 47%
52 nM | 12 nM | 1.8 nM | – | – | CC#C[C@]1(O)CC[C@H]2[C@@H]3CCC4=CC(=O)CCC4=C3[C@@H](c3ccc(N(C)Cc4ccc(C(=O)O)cc4)cc3)C[C@@]21C | 123% | 106% | 94%
64 nM | 21 nM | 0.5 nM | – | – | CC#C[C@]1(O)CC[C@H]2[C@@H]3CCC4=CC(=O)CCC4=C3[C@@H](c3ccc(N(C)CC(=O)N(C)c4ccc(C(=O)O)cc4)cc3)C[C@@]21C | – | – | –
